According to patent US11311523B2, “Pyridinone compound and use thereof” (KYUSHU UNIVERSITY, NATIONAL UNIVERSITY CORPORATION, priority 2015, dated 2022):

Tests used:
[1] = target: T1, DHR-2 domain of DOCK1 (Homo sapiens, UniProt Q14185); assay: in vitro GEF assay (Bodipy-FL-GTP loading of Rac); format: biochemical
T1 construct: Polypeptide fragments that correspond to the DHR-2 domain of DOCK1, DOCK2, or DOCK5; Histidine-SUMO (N); made in house; host or cells: E. coli Arctic express (DE3)
T1 sequence (Q14185 1207-1617 limits assumed): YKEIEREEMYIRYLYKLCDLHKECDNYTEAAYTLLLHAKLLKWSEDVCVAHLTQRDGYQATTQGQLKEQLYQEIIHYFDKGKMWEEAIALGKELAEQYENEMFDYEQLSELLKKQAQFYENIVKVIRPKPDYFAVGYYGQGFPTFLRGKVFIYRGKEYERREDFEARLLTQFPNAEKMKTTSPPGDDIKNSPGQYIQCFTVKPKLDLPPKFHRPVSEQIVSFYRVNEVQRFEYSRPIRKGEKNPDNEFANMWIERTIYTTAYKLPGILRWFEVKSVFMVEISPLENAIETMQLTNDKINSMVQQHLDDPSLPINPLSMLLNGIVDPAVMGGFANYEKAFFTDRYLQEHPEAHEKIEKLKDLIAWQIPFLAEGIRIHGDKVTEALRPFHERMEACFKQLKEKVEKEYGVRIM
Text: (§1) Pharmacological Test 1 (In Vitro GEF Assay)
(§2) DOCK1, DOCK2, and DOCK5, which are DOCK-A subfamily members, catalyze the GTP-GDP exchange reaction for Rac via the DHR-2 domain to activate Rac.
(§3) The in vitro GEF assay referred to in this specification used a labeled GTP (Bodipy-FL-GTP, Invitrogen), whose fluorescence intensity increases when bound to Rac.
(§4) Polypeptide fragments that correspond to the DHR-2 domain of DOCK1, DOCK2, or DOCK5 were expressed in E. coli Arctic express (DE3) cells as N-terminal Histidine-SUMO tag-fused recombinant proteins and purified by affinity column chromatography on nickel-NTA columns.
(§5) Rac was expressed in E. coli BL21 (DE3) cells as an N-terminal GST tag-fused recombinant protein and purified by affinity column chromatography on glutathione-Sepharose columns.
(§6) Subsequently, a reaction solution A containing 20 mM of MES-NaOH, 150 mM of NaCl, 10 mM of MgCl2, and 20 μM of GDP, and having an adjusted pH of 7.0 was incubated at room temperature for 30 minutes while being protected from light in the presence of each of the polypeptide fragments (DHR-2 domains) prepared above and each pyridinone compound or CPYPP dissolved at a predetermined concentration in DMSO or DMSO alone (control) to thus prepare GEF pretreated products. In all of the samples, the final DMSO concentration was adjusted to 3%.
(§7) Thereafter, 15 μM of Rac prepared above was added to the reaction solution A and directly allowed to stand on ice for 30 minutes to form a GDP-Rac complex.
(§8) Bodipy-FL-GTP was added to 100 μL of the reaction solution A containing the thus prepared GDP-Rac complex to a concentration of 3.6 μM, followed by equilibration at 30° C. for 2 minutes. After equilibration, 50 μL of the pretreated GEF was added for reaction at 30° C.
(§9) Changes in fluorescence intensity of Bodipy-FL-GTP were monitored during the reaction using an XS-N (Molecular Devices) or an Enspire spectrofluorometer (Perkin Elmer) (excitation wavelength: 488 nm, emission wavelength: 514 nm). The measured values were corrected so that the fluorescence intensity at the time that the reaction was initiated (0 seconds) was 0.
(§10) Then, an approximate curve (hyperbola) was obtained by plotting the calculated correction values on the y axis and the time (t) on the x axis using GraphPad Prism5 (GraphPad software), and the slope at t=0 to 10 seconds was considered to be an initial velocity of guanine nucleotide exchange reaction. The IC50 value was calculated taking the initial reaction velocity of the control, to which only a solvent (DMSO) was added, as 100%.

[2] = target: T2, DHR-2 domain of DOCK2 (Homo sapiens, UniProt Q92608); assay: in vitro GEF assay (Bodipy-FL-GTP loading of Rac); format: biochemical; conditions: FIG. 11
T2 construct: Polypeptide fragments that correspond to the DHR-2 domain of DOCK1, DOCK2, or DOCK5; Histidine-SUMO (N); made in house; host or cells: E. coli Arctic express (DE3)
T2 sequence (Q92608 1211-1622 limits assumed): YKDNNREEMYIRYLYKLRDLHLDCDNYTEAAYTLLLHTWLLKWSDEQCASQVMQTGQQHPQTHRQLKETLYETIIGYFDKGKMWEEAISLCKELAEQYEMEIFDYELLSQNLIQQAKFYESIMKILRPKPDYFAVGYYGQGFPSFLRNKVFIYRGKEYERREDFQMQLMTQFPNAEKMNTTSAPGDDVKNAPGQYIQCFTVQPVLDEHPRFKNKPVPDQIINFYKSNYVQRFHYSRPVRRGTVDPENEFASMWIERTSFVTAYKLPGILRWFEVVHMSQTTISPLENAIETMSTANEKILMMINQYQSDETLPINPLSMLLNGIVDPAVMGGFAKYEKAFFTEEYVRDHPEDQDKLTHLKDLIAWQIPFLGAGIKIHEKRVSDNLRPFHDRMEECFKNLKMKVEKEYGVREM
Text: as §1, §2, §3, §4, §5, §6, §7, §8, §9, §10

[3] = target: T3, DHR-2 domain of DOCK5 (Homo sapiens, UniProt Q9H7D0); assay: in vitro GEF assay (Bodipy-FL-GTP loading of Rac); format: biochemical; conditions: FIG. 11
T3 construct: Polypeptide fragments that correspond to the DHR-2 domain of DOCK1, DOCK2, or DOCK5; Histidine-SUMO (N); made in house; host or cells: E. coli Arctic express (DE3)
Text: as §1, §2, §3, §4, §5, §6, §7, §8, §9, §10

[4] = system: primary mouse embryonic fibroblasts (MEFs); assay: inhibition of ruffle formation after PDGF stimulation; format: cell-based; conditions: 1 hour pretreatment
Text: Pharmacological Test 4 (Experiment on Inhibition of Ruffle Formation in Primary Mouse Embryonic Fibroblasts)
As disclosed in NPL 2, stimulation of primary mouse embryonic fibroblasts (MEFs) with a growth factor, such as PDGF, induces actin cytoskeletal remodeling, leading to the formation of two types of characteristic cellular membrane structures, peripheral ruffles and dorsal ruffles.
The peripheral ruffle and dorsal ruffle formation depends on Rac activation and requires the functions of DOCK1 and DOCK5. Importantly, it is known that the peripheral ruffle formation requires the functions of both DOCK1 and DOCK5 while the dorsal ruffle formation requires the function of DOCK1.
Therefore, the use of various pyridinone compounds in this assay system enables cell-level verification of DOCK1 selectivity.
Wild-type MEFs or MEFs from DOCK1-deficient (D1KO) mouse (obtained by the method disclosed in NPL 2) were suspended in DMEM (with 10% FBS) to a concentration of 2×10^4 cells/mL, and 150 μL of the resulting product was seeded on the glass portion of fibronectin-coated glass-bottom culture dishes.
After 36-hour culture at 37° C., the medium was changed to DMEM (serum free) containing 0.1% BSA, and 12-hour culture was performed to allow the cells to be serum-starved. Subsequently, the medium was changed to 100 μL of DMEM (serum free) containing DMSO in which each pyridinone compound or CPYPP was dissolved at a predetermined concentration, followed by pretreatment for 1 hour. A control was prepared using a culture medium to which DMSO was added alone. In all of the experiments, the final concentration of DMSO was adjusted to 0.2%.
Thereafter, 100 μL of DMEM that was warmed beforehand to 37° C. (serum free, containing 60 ng/mL of PDGF) was added to the above pretreated cells to stimulate the cells, followed by incubation at 37° C. for 7 minutes and further incubation at room temperature for 10 minutes in 150 μL of 4% paraformaldehyde solution to fix the cells. Then, PBS (containing 0.2% Triton X-100) was added to the fixed cells, and a 5-min incubation at room temperature was performed to permeabilize the cellular membranes. Thereafter, the cells were blocked with BSA, and the actin cytoskeleton was stained with Alexa Fluor 546-labeled phalloidin. Using a Zeiss LSM510 meta confocal laser scanning microscope, the number of cells in which peripheral ruffles and dorsal ruffles were formed was observed and counted.

[5] = system: mouse lung carcinoma cell line (3LL); assay: cellular invasion inhibition assay (Matrigel chamber); format: cell-based; conditions: 3LL cells, 22 hours, compared to DMSO
Description: Pharmacological Test 2 (Cellular Invasion Inhibition Assay)
Three hundred microliters of a suspension of a mouse lung carcinoma cell line (3LL), a human fibrosarcoma cell line (HT-1080), or a human colon cancer cell line (DLD-1) in DMEM (serum free) was placed in the upper chamber with Matrigel (BD Biosciences) equilibrated with DMEM (serum free) for 120 minutes, while 500 μL of DMEM (with 10% FCS) was placed in the lower chamber. Each pyridinone compound or CPYPP dissolved at a predetermined concentration in DMSO was added to the culture media in both the upper and lower chambers. As a control, DMSO alone was added to the media. In all of the experiments, the final DMSO concentration was adjusted to 0.2%.
After the resulting products were cultured at 37° C. under 5% CO2 for 22 hours, the chambers were removed, and the culture media were removed. […] After staining, the inserts were cut out with a blade to prepare slides, and the cells were counted under an optical microscope.
The results were evaluated based on percent cell invasion (%: Invasion) and percent inhibition (%: inhibition). The percent cell invasion was obtained by converting the number of invading cells under each condition to percentage, taking the number of invading cells in the control, to which DMSO was added alone, as 100%; and the percent inhibition was obtained by deducting the percent cell invasion from 100.

T3 sequence (Q9H7D0 1231-1642 limits assumed): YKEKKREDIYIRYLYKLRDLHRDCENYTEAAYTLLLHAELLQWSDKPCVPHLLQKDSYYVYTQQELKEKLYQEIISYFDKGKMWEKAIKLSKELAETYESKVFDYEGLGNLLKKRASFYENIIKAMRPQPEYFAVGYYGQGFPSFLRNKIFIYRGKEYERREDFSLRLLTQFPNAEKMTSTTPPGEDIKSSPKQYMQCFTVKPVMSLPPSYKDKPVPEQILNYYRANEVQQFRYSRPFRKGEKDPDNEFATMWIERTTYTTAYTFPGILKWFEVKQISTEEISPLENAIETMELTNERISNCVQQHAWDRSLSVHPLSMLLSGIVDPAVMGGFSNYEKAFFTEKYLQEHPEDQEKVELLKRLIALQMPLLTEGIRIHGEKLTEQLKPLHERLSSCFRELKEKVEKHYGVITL

IC50 ([1]; FIG. 11) [µM]	selectivity of GEF inhibition to DOCK1 versus DOCK2 and DOCK5 ([1]; from IC50 values for DOCK1, DOCK2, DOCK5)	IC50 [2] [µM]	IC50 [3] [µM]	Structure (SMILES)	dorsal ruffle formation [4]	peripheral ruffle formation [4]	inhibition of cancer cell (3LL) invasion [5]
20	no selectivity	39	14.8	O=C1NN(c2ccccc2)C(=O)C1=CC=Cc1ccccc1Cl [CPYPP, reference compound]	inhibited both peripheral ruffle formation and dorsal ruffle formation	inhibited both peripheral ruffle formation and dorsal ruffle formation	–
–	–	–	–	Cc1cc(C(=O)Cn2cc(S(=O)(=O)N3CCCC3)ccc2=O)c(C)n1Cc1ccc(F)cc1 [Compound T-070444, 1-(2-(1-(4-fluorobenzyl)-2,5-dimethyl-1H-pyrrol-3-yl)-2-oxoethyl)-5-(pyrrolidin-1-ylsulfonyl)pyridin-2(1H)-one]	significantly inhibited	occurred in a similar manner to that of the control	–
–	–	–	–	O=C(Cn1cc(S(=O)(=O)N2CCCC2)ccc1=O)c1ccc(-c2ccc(C(F)(F)F)cc2)cc1 [TS-16, 1-(2-oxo-2-(4′-(trifluoromethyl)-[1,1′-biphenyl]-4-yl)ethyl)-5-(pyrrolidin-1-ylsulfonyl)pyridin-2(1H)-one]	–	–	significantly excellent inhibitory effect
